These results are taken from US6677313B1, “Method for gene therapy using nucleic acid loaded polymeric microparticles” (Brown University Research Foundation, priority 1995, dated 2004).

A short description of the series: in vivo. The note with it: rat, serum, po, 25 mg/kg.

Protocol: Dicumarol containing microspheres were produced as described above in Example 2, subsection 1. Equal doses of dicumarol, spray dried dicumarol and polyanhydride (FA:SA) 20:80 encapsulated dicumarol (25 mg drug/kg body weight) suspended in 1.5 ml maple syrup were fed to catheterized rats (250-350 g). Blood samples were taken at regular intervals and serum was assayed for dicumarol concentrations using a UV spectrophotometric method.

Turning to `O=c1oc2ccccc2c(O)c1Cc1c(O)c2ccccc2oc1=O` [STOCK DICUMAROL CONTROL, dicumarol], the AUC (as a rule, concentration integrated over time) was determined as 171 ± 33.2 µg·h/mL; the Cmax (usually the peak of the concentration-time curve) was 11500 ± 1100 ng/mL; the Tmax – broadly, the time at which the peak concentration occurs – turned out to be 9.87 ± 1.76 h; the half-life (commonly how long it takes for the measured level to halve) was 18.2 ± 3.3 h.
